Measured values as given in patent publication US20230086702A1, “SUBSTITUTED 2-AMINO-PYRAZOLYL-[1,2,4]TRIAZOLO[1,5A]PYRIDINE DERIVATIVES AND USE THEREOF” (The Johns Hopkins University, priority 2019, published 2023).
Read-outs that look alike come from different tables or passages of the source.

Key:
LZK [1] = target: T1, LZK (Homo sapiens, UniProt O43283); experiment: LZK biochemical assay (TR-FRET, MKK7 phosphorylation); details: LZK catalytic domain, MKK7 substrate, 15 μM ATP
T1 construct: 10 nM LZK, catalytic domain, Carna Biosiences in assay buffer; purchased Carna Biosciences ('Carna Biosiences' [sic])
T1 sequence (O43283 168-409 limits assumed): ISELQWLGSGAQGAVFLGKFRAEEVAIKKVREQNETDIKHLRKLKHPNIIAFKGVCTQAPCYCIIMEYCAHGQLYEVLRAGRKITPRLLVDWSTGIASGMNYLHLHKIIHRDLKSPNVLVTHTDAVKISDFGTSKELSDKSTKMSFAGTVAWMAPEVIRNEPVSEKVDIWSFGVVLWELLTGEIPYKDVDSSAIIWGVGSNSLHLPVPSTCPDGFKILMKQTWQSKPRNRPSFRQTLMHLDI
Method: (§1) LZK assay is a biochemical assay format designed to screen for inhibitors of LZK. Enzymatic activity of LZK is measured by monitoring phosphorylation of the physiological substrate MKK7 (MAP2K7, Dual specificity mitogen-activated protein kinase kinase 7). Phosphorylation is detected by a TR-FRET system whereby His-tagged MKK7 is labeled by a XL665-labeled anti-His antibody (FRET acceptor, emission 665 nm). LZK phosphorylates MKK7 at T275/S277 which is detected by an Eu-labeled anti-phospho-MKK7 (T275/S277) antibody (FRET donor, excitation 340 nm). Phosphorylation of MKK7 results in an increased TR-FRET signal (Ratio XL665-channel/Eu-channel) and inhibition of enzymatic activity of LZK decreases the TR-FRET signal.
All indicated concentrations final concentrations.
(§2) Detection buffer: 25 mM Tris/HCl pH 7.5, 100 mM EDTA, 100 mM NaCl, 200 mM KF, 0.01% Tween 20, 1:500 Smart Block.

DLK [2] = target: T2, DLK (Homo sapiens, UniProt Q12852); experiment: DLK biochemical assay (TR-FRET, MKK7 phosphorylation); details: DLK catalytic domain, MKK7 substrate, 60 μM ATP
T2 construct: 10 nM DLK, catalytic domain, Carna Biosiences; purchased Carna Biosciences ('Carna Biosiences' [sic])
T2 sequence (Q12852 125-366 limits assumed): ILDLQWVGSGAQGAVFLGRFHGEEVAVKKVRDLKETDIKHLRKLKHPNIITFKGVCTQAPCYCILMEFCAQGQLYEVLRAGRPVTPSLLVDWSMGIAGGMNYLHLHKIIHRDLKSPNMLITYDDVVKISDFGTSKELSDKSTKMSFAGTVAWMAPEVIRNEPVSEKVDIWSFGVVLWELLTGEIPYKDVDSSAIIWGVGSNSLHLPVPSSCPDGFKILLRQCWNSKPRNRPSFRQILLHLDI
Method: as §1, with “DLK assay” for “LZK assay”, “of DLK.” for “of LZK.”, “of DLK” for “of LZK”, “nm). DLK” for “nm). LZK”, “at T275/S277,” for “at T275/S277”
All indicated concentrations are final concentrations.
as §2

DLK [3] = target: T2, DLK; experiment: as above
Outline: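 TR-FRET read-out (665/Eu ratio) of MKK7 T275/S277 phosphorylation, with inhibition lowering the signal. Final conditions: 10 nM DLK catalytic domain, 15 nM MKK7, 60 μM ATP, 90 min at RT. Detection incubation 16 h at 37° C in 1536-well or 4° C in 384-well format.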

LZK [4] = target: T1, LZK; experiment: LZK biochemical assay (TR-FRET, MKK7 phosphorylation)
Outline: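 Read-out is HTRF: Eu-labelled anti-phospho-MKK7 (T275/S277) and XL665 anti-His, incubated 16 h at 32 °C, with a drop in signal marking inhibition. Reaction beforehand: 10 nM LZK kinase domain, 15 nM His-MKK7, 15 µM ATP (final) for 90 min at room temperature, pH 7.5.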

Row | SMILES | IC50 (LZK [1]) [nM] | IC50 (DLK [2]) [nM] | IC50 (DLK [3]) [nM] | IC50 (LZK [4]) [nM]
1 | CC[C@H](C)NC(=O)c1cc(-c2cnn([C@@H](CC)c3ccc(C(F)(F)F)nc3)c2)cc2nc(N)nn12 (single isomer, unassigned) [Example I-103] | 2.4 | 0.8 | – | –
2 | CC[C@H](C)NC(=O)c1cc(-c2cnn(C(c3ccc(OCC(F)(F)F)nc3)C(C)C)c2)cc2nc(N)nn12 (mixture of isomers) [Example I-116, 2-Amino-N-[(2S)-butan-2-yl]-7-(1-{2-methyl-1-[6-(2,2,2-trifluoroethoxy)pyridin-3-yl]propyl}-1H-pyrazol-4-yl)[1,2,4]triazolo[1,5-a]pyridine-5-carboxamide] | 68 | 8.2 | – | –
3 | CC[C@H](C)NC(=O)c1cc(-c2cnn(C(c3ccc(OCC(F)(F)F)nc3)C(C)C)c2)cn2nc(N)nc12 (single isomer, unassigned) [Example I-89] | 2000 | 230 | – | –
4 | CC[C@H](C)NC(=O)c1cc(-c2cnn(Cc3cccc4cn[nH]c34)c2)cc2nc(N)nn12 (single isomer, unassigned) [Example I-50] | 25 | 1.6 | – | –
5 | CC[C@H](C)NC(=O)c1cc(-c2cnn(C(c3ccc(C(F)F)nc3)C(C)C)c2)cn2nc(N)nc12 (single isomer, unassigned) [Example I-68] | 43 | 14 | – | –
6 | CC[C@H](C)NC(=O)c1cc(-c2cnn(C3CCN(Cc4ccccc4)CC3)c2)cn2nc(N)nc12 (single isomer, unassigned) [Example I-10] | 9 | 24 | – | –
7 | CC[C@H](C)NC(=O)c1cc(-c2cnn(C(c3ccccc3)C3CC(F)(F)C3)c2)cn2nc(N)nc12 (single isomer, unassigned) [Example I-32] | 180 | 56 | – | –
8 | CC[C@H](C)NC(=O)c1cc(-c2cnn(C(c3ccccc3)C3(C)CC3)c2)cn2nc(N)nc12 (mixture of isomers) [Example I-28, 2-Amino-N-[(2S)-butan-2-yl]-6-{1[(1-methylcyclopropyl)(phenyl)methyl]-1H-pyrazol-4-yl}[1,2,4]triazolo[1,5-a]pyridine-8-carboxamide] | 380 | 9.2 | – | –
9 | CC[C@H](C)NC(=O)c1cc(-c2cnn(C3CCN(C4COC4)CC3)c2)cn2nc(N)nc12 (single isomer, unassigned) [Example I-8] | 9.4 | 68 | – | –
10 | CCC(c1ccc(OCC(F)(F)F)nc1)n1cc(-c2cc(C(=O)N[C@H]3CCOC3)n3nc(N)nc3c2)cn1 (single isomer, unassigned) [Example I-187] | 18 | 0.8 | – | –
11 | COC[C@H](C)NC(=O)c1cc(-c2cnn(Cc3ccc(F)cc3)c2)cn2nc(N)nc12 (single isomer, unassigned) [Example I-135, 2-Amino-6-{1-[(4-fluorophenyl)methyl]-1H-pyrazol-4-yl}-N-[(25)-1-methoxypropan-2-yl][1,2,4]triazolo[1,5-a]pyridine-8-carboxamide] | 550 | 190 | – | –
12 | CC(CF)NC(=O)c1cc(-c2cnn(C3CCOc4ccccc43)c2)cn2nc(N)nc12 (single isomer, unassigned) [Example I-145, 2-Amino-6-[1-(3,4-dihydro-2H-chromen-4-yl)-1H-pyrazol-4-yl]-N-(1-fluoropropan-2-yl)[1,2,4]triazolo[1,5-a]pyridine-8-carboxamide] | 110 | 110 | – | –
13 | Nc1nc2cc(-c3cnn(C(c4ccccc4)C4CCOCC4)c3)cc(-c3cnn(CC(F)(F)F)c3)n2n1 (single isomer, unassigned) [II-147, 7-{1-[Phenyl(tetrahydro-2H-pyran-4-yl)methyl]-1H-pyrazol-4-yl}-5-[1-(2,2,2-trifluoroethyl)-1H-pyrazol-4-yl][1,2,4]triazolo[1,5-a]pyridin-2-amine] | – | – | 2.3 | 73
14 | CC(C)c1nnc(-c2cc(-c3cnn(Cc4ccccc4)c3)cn3nc(N)nc23)s1 [II-198, 6-(1-Benzyl-1H-pyrazol-4-yl)-8-[5-(propan-2-yl)-1,3,4-thiadiazol-2-yl][1,2,4]triazolo[1,5-a]pyridin-2-amine] | – | – | 150 | 260
15 | COc1cc(C(C(C)C)n2cc(-c3cc(-c4cnn(CC(F)(F)F)c4)n4nc(N)nc4c3)cn2)ccn1 (single isomer, unassigned) [II-137, 7-{1-[1-(2-Methoxypyridin-4-yl)-2-methylpropyl]-1H-pyrazol-4-yl}-5-[1-(2,2,2-trifluoroethyl)-1H-pyrazol-4-yl][1,2,4]triazolo[1,5-a]pyridin-2-amine] | – | – | 40 | 720
16 | Nc1nc2cc(-c3cnn(C(c4ccc(C(F)(F)F)nc4)C4CCOCC4)c3)cc(-c3ccnc(C(F)(F)F)c3)n2n1 (racemic) [II-34, 7-(1-{Tetrahydro-2H-pyran-4-yl[6-(trifluoromethyl)pyridin-3-yl]methyl}-1H-pyrazol-4-yl)-5-[2-(trifluoromethyl)pyridin-4-yl][1,2,4]triazolo[1,5-a]pyridin-2-amine] | – | – | 15 | 7.1
17 | CCC(c1ccc(C(F)(F)F)nc1)n1cc(-c2cc(-c3ccc(C4CC4)nc3)n3nc(N)nc3c2)cn1 (single isomer, unassigned) [II-56, 5-(6-Cyclopropylpyridin-3-yl)-7-(1-{1-[6-(trifluoromethyl)pyridin-3-yl]propyl}-1H-pyrazol-4-yl)[1,2,4]triazolo[1,5-a]pyridin-2-amine] | – | – | 37 | 56
18 | Nc1nc2c(-c3ccn(CC(F)(F)F)c(=O)c3)cc(-c3cnn(C(c4ccc(C(F)(F)F)nc4)C4CCOCC4)c3)cn2n1 (centres unmarked) [II-175] | – | – | 2.7 | 13
19 | Nc1nc2c(-c3ccc(=O)n(C(F)F)c3)cc(-c3cnn(C(c4ccc(C(F)(F)F)nc4)C4CCOCC4)c3)cn2n1 (centres unmarked) [II-153] | – | – | 1.4 | 3.5
20 | CCC(c1ccc(N2CCOCC2)cc1)n1cc(-c2cc(-c3cnn(CC(F)(F)F)c3)c3nc(N)nn3c2)cn1 (single isomer, unassigned) [II-104, 6-(1-{1-[4-(Morpholin-4-yl)phenyl]propyl}-1H-pyrazol-4-yl)-8-[1-(2,2,2-trifluoroethyl)-1H-pyrazol-4-yl][1,2,4]triazolo[1,5-a]pyridin-2-amine] | – | – | 6 | 51
21 | Nc1nc2c(-c3ccc(=O)n(CC(F)F)c3)cc(-c3cnn(C(c4ccc(C(F)(F)F)nc4)C4CCOCC4)c3)cn2n1 (single isomer, unassigned) [II-158, 5-[2-Amino-6-(1-{tetrahydro-2H-pyran-4-yl[6-(trifluoromethyl)pyridin-3-yl]methyl}-1H-pyrazol-4-yl)[1,2,4]triazolo[1,5-a]pyridin-8-yl]-1-(2,2-difluoroethyl)pyridin-2(1H)-one] | – | – | 0.4 | 1.2
22 | CCC(c1ccc(C(F)(F)F)nc1)n1cc(-c2cc(-c3ccnc(C4(F)CC4)c3)n3nc(N)nc3c2)cn1 (single isomer, unassigned) [II-32, 5-[2-(1-Fluorocyclopropyl)pyridin-4-yl]-7-(1-{1-[6-(trifluoromethyl)pyridin-3-yl]propyl}-1H-pyrazol-4-yl)[1,2,4]triazolo[1,5-a]pyridin-2-amine] | – | – | 66 | 16
